# Where two headings read alike, the source gives them in different places.
# Tests used:
# [1] = Dog plasma and CSF exposure after subcutaneous dosing; format: in vivo; conditions: sc; for concentration at 4 h: CSF, aged beagle, 4 h post-dose, read-out: Measured Ccsf concentration
# [2] = First-time-in-human single ascending dose safety; format: in vivo; conditions: plasma, oral, 175 mg; human SAD; read-out: Cmax at which cholinergic side effects were recorded
# From the text: (§1) HTL9936 was progressed into a randomized, double blind, placebo controlled, first time-in-human (FTIH) ascending single and multiple oral dose study in healthy young adult male volunteers and healthy elderly male and female volunteers. (ClinicalTrials.gov Identifier: NCT02291783).
# (§2) The required amount of sterile solution was subsequently injected into the infusion bag containing sodium chloride 0.9%w/v infusion fluid to provide the required dose for IV administration.
# healthy volunteers = experiment: First-time-in-human single ascending dose safety; format: in vivo
# From the text: as §1, §2
# healthy elderly subjects = experiment: Clinical fMRI Arena task in healthy elderly subjects; format: in vivo, human; set-up: Activation across a-priori regions during encoding and retrieval / Left hippocampus activation effect: dose or concentration left out as unconfirmed
# From the text: All functional MRI images were acquired on a 3T scanner using gradient echo-echo planar imaging (GRE-EPI: TR: […]; TE: 30 ms; 90-degree flip angle; slices: 53; voxel size 3.75x 3.75 mm) and an 8-channel head coil. All data processing was done using Statistical Parameteric Mapping (SPM) version 5 software. All functional images were co-registered to subjects own T1 weighted structural image for anatomical localization, realigned using a least-squares approach and a 6 parameter (rigid body) spatial translation, normalized to Montreal neurological institute (MNI) using a high dimensional, non-linear transformation and smoothed using 3D 7 mm Gaussian filter. A high pass filter was applied to remove low temporal frequency drift. Bilateral hippocampal and caudate masks based on previous publications using the Arena task were used for analysis ([Antonova et al., 2009], [2011]). The masks consisted of spheres of radius 6mm centered on co-ordinates from these papers.
# A block design was used to assess functional activation during encoding, retrieval, and rest (control) conditions of the Arena task. Beta-estimates of functional response during each condition were created by modeling signal changes convolved with a double gamma hemodynamic response function with peak responses at 4 and 8 s following stimulus onset for each individual. In the first level analysis, difference in beta estimates for encoding versus rest, and retrieval versus rest were derived. […] Functional responses in the a-priori ROIs were extracted using hippocampal, ventral striatum, and caudate masks derived from subject own T1 weighted image. To test for drug effects in these pre-specified regions an ANOVA including fixed-effect terms representing treatment group, study site as a between subject factor, and baseline MMSE score as covariate was used.
# rats = experiment: Safety pharmacology and toxicology clinical signs, rat; format: in vivo
# From the text: The rat and dog were appropriate species in which to conduct nonclinical safety evaluation and HTL9936. Male and female rates of the RccHan: WIST strain were obtained from Harlan, Bicester, UK. and the animals were approximately seven to eight weeks old at the start of dosing. Throughout the study the animals had access ad libitum to SQC Rat and Mouse Maintenance Diet No 1, Expanded, (Special Diets Services Ltd, Witham, UK). […] The temperature and relative humidity ranges were maintained in the specified ranges of 20 to 24°C and 45 to 65%, respectively.
# M2-receptor = biological target: T1, M2-receptor (Homo sapiens, UniProt P08172); experiment: [3H]-NMS equilibrium radioligand binding, M2
# T1 sequence (P08172 1-466): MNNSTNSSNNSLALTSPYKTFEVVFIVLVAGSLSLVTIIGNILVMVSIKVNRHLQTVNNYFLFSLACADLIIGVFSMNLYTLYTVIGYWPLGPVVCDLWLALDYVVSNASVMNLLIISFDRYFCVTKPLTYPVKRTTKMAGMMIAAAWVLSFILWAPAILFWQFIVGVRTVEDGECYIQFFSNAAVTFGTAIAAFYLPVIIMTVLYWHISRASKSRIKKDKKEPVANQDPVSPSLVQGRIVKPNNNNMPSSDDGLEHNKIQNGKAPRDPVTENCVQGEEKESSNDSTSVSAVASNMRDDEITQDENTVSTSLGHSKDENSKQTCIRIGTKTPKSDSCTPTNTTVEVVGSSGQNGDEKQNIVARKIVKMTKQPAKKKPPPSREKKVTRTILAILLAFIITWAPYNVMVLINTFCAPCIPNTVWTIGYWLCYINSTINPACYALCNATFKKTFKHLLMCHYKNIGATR
# Method: Non-specific binding (NSB) was determined in the presence of 1 μM atropine). Reactions were terminated by rapid filtration onto GF/B filter paper (Whatman, Maidstone, UK) and three washes with 3 mL ice-cold 0.9% NaCl using a Brandel harvester (M-24TI; Brandel, Fort Lauderdale, FL). Membrane bound radioactivity was determined by liquid scintillation (Ultima Gold; PerkinElmer) counting.
# Data was analyzed using PRISM (GraphPad). For saturation binding, non-specific and total binding data were analyzed to a one site binding model. DPM was converted to fmol/mg to compare across constructs. […] […] The Cheng Prusoff equation was used to estimate pKi ([Cheng and Prusoff, 1973]).
compound,measurement,setting,value
"CCOC(=O)N1CCC[C@H](N2CCC(C(=O)NC3(C)CCC3)CC2)CC1 [HTL9936, ethyl (S)-4-(4-((1-methylcyclobutyl)carbamoyl)piperidin-1-yl)azepane-1-carboxylate]",concentration at 4 h,[1]; 0.3 mg/kg s.c.,13 nM
same,concentration at 4 h,[1]; 1 mg/kg s.c.,48 nM
same,concentration at 4 h,[1]; 2 mg/kg s.c.,128 nM
same,Cmax,"[1]; plasma, aged beagle DNMP study, 0.3 mg/kg subcutaneous, read-out: Cmax plasma exposure at minimal effective dose",58 ng/mL
same,Cmax,[2],242 ng/mL
same,"Subjects with mild cholinergic responses (salivation, sweating, blood pressure/heart rate changes)","healthy volunteers; human SAD, 175 mg cohort",3/5
same,Serious adverse events leading to withdrawal,"healthy volunteers; human SAD, 1−100mg oral",no serious adverse events
same,Margin of 242 ng/mL over plasma minimal effective concentration in aged beagle DNMP,healthy volunteers; human vs dog 58 ng/mL,about 5 ×
same,Estimated unbound brain exposure at plasma Cmax of 242 ng/mL,"healthy volunteers; human, from CSF to plasma ratios 1 to 3 h",72 to 259 nM
same,Activation across a-priori regions during encoding and retrieval,healthy elderly subjects; 10.1 dose (so in the source),increased bilateral activation
same,Left hippocampus activation effect,healthy elderly subjects; 40.3 dose (so in the source),smaller effect
same,Arena task performance,"healthy elderly subjects; healthy elderly, i.v. infusion",did not significantly improve task performance
same,fMRI activation during encoding of spatial cues,"healthy elderly subjects; healthy elderly, i.v. infusion",significant drug by activation interaction effect in the left hippocampus
same,Predicted steady-state plasma concentration,"healthy elderly subjects; human, high dose 40.3 mg i.v.",100 ng/mL
same,Predicted exposure as multiple of human M1-receptor in vitro potency,"healthy elderly subjects; human, low and high doses",0.2- to 3.4 fold
same,Predicted steady-state plasma concentration,"healthy elderly subjects; human, low dose 10.1 mg i.v.",25 ng/mL
same,"Cu,pl without cholinergic clinical signs",rats,"1,372 nM"
same,Plasma exposure without cholinergic clinical signs,rats,up to 732 ng/mL
same,Ki,M2-receptor,3.16 µM

# Reference: PMC7616177, “From structure to clinic: Design of a muscarinic M1 receptor agonist with the potential to treat Alzheimer’s disease” (Cell, 2021)
